pKd: −log10 of the molar value. Where no end group is shown, it is not given here.
Legend:
[1] = target: SARS-CoV-2 spike monomer protein (Severe acute respiratory syndrome coronavirus 2, UniProt P0DTC2); assay: biochemical; type: binding
[2] = target: SARS-CoV-2 spike trimer protein (Severe acute respiratory syndrome coronavirus 2, UniProt P0DTC2); assay: biochemical; type: binding

NFWISPKLAFALGGGS [Spep-1] gave a pKd [1] of 8.67 and a pKd [2] of 8.77.

— publication PMC9254439 (Virologica Sinica, 2022)
